Reference: patent US12545673B2, “Imidazopyridine derivative and pharmaceutical composition comprising same as active ingredient” (TSD LIFE SCIENCES CO., LTD., priority 2019, dated 2026)

Assays:
[1] = test system: gastric cancer cell line AGS; assay: Cancer cell proliferation inhibitory activity evaluation 2 (CCK-8), AGS; type: cell-based; settings: Homo sapiens; 10 μM, 72 hours, CCK-8; read-out: Cancer cell proliferation inhibitory activity AGS
Protocol: (§1) In order to identify whether the compounds have anticancer activity, the acute myeloid leukemia cell line U937, the acute lymphoblastic leukemia cell line Jurkat, the gastric cancer cell lines AGS, […], and the human lung cancer cell line A549 were used. The cell line was cultured using RPMI-1640 medium (U937, Jurkat, AGS, A549) or DMEM (Hs746T) medium containing 10% fetal bovine serum. Welgene products were used as the medium, and hyclone products were used for fetal bovine serum, and 1% of antibiotics for cell culture from Gibco were used as the culture medium.

[2] = test system: acute myeloid leukemia cell line U937; assay: Cancer cell proliferation inhibitory activity evaluation 2 (CCK-8), U937; type: cell-based; settings: Homo sapiens, U-937; 10 μM, 72 hours, CCK-8 (Table 3); read-out: Cancer cell proliferation inhibitory activity U937
Protocol: as §1

[3] = test system: acute lymphoblastic leukemia cell line Jurkat; assay: Cancer cell proliferation inhibitory activity evaluation 2 (CCK-8), Jurkat; type: cell-based; settings: Homo sapiens, 10 μM, 72 hours, CCK-8, read-out: Cancer cell proliferation inhibitory activity Jurkat
Protocol: as §1

[4] = molecular target: MLK3 (Homo sapiens (Human), UniProt Q16584); assay: Evaluation of inhibitory activity of enzyme units, MLK3 ([γ-33P]-ATP filter assay); settings: read-out: IC50(nM) MLK3
[5] = molecular target: MLK1 (Homo sapiens (Human), UniProt P80192); assay: Evaluation of inhibitory activity of enzyme units, MLK1 ([γ-33P]-ATP filter assay); type: biochemical
MLK1, sequence (P80192 whole entry, looked up): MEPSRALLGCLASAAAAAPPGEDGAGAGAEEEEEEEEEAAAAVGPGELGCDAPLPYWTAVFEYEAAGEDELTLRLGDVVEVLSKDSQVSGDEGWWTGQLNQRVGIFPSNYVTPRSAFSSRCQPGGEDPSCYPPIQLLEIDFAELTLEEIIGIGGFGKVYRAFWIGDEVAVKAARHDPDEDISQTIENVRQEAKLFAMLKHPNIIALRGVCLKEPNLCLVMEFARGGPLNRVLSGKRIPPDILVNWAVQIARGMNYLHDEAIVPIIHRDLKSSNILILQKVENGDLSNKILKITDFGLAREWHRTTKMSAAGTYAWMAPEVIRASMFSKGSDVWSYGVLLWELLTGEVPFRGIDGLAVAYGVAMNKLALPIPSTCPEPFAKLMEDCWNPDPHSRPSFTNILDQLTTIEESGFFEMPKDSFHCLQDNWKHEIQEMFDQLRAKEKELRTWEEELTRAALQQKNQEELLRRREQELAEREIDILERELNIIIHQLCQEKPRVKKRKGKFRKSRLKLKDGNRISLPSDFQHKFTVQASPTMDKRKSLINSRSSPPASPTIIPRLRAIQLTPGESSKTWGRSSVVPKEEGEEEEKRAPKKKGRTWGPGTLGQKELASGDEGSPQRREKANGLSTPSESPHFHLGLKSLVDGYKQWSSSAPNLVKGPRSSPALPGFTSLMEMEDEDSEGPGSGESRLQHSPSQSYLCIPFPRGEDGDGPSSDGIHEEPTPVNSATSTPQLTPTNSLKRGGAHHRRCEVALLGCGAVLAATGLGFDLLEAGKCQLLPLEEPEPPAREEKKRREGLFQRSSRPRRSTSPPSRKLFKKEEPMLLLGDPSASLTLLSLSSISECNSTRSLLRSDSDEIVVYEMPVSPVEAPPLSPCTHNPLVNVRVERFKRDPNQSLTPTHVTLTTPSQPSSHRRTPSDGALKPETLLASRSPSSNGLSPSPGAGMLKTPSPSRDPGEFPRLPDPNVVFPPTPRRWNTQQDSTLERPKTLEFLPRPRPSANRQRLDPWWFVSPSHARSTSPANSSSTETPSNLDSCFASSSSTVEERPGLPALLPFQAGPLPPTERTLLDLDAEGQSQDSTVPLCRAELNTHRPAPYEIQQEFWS

MLK3, sequence (Q16584 whole entry, looked up): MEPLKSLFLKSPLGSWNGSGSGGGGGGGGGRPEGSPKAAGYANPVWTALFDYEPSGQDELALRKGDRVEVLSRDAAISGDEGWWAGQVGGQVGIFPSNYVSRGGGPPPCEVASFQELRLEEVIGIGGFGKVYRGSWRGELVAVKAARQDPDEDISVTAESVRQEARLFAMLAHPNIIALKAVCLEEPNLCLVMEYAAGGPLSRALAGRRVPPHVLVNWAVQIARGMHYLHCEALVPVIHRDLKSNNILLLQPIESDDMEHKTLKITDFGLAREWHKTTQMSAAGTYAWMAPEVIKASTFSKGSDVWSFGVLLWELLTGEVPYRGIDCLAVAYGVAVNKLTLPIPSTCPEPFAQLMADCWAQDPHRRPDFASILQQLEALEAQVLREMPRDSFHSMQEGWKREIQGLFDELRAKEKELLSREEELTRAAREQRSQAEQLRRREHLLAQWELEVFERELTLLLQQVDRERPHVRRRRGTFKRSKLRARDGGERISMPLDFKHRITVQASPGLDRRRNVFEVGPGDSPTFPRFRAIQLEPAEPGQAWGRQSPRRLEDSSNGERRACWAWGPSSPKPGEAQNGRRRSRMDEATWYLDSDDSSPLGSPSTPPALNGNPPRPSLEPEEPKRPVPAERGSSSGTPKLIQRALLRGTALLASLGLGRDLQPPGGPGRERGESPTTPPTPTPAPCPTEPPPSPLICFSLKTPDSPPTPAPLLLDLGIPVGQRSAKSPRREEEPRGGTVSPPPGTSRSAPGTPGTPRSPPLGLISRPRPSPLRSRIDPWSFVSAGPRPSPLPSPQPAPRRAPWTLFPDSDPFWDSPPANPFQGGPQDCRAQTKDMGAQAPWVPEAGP

Question: With `CCS(=O)(=O)N1CC[C@H](Nc2c(Br)cnc3[nH]c(-c4cc(C)n(-c5ccc(S(=O)(=O)N6CCOCC6)cc5)c4C)nc23)C1` [Example 10, (S)-6-bromo-2-(2,5-dimethyl-1-(4-(morpholinosulfonyl)phenyl)-1H-pyrrol-3-yl)-N-(1-(ethylsulfonyl)pyrrolidine-3-yl)-3H-imidazo[4,5-b]pyridine-7-amine] as the compound, how does the inhibition at 10 µM [1] read?
Answer: 10 to 50%

Question: What about the inhibition at 10 µM [2] of the same compound?
Answer: 10 to 50%

Question: What about the inhibition at 10 µM [3] of the same compound?
Answer: > 50%

Question: And the IC50 [4]?
Answer: 7 nM

Question: With `Cc1cc(-c2nc3c(Nc4cccc(S(N)(=O)=O)c4)c(Br)cnc3[nH]2)c(C)n1-c1cccc(C(=O)N2CCOCC2)c1` [Example 28, 3-((6-bromo-2-(2,5-dimethyl-1-(3-(morpholine-4-carbonyl)phenyl)-1H-pyrrol-3-yl)-3H-imidazo[4,5-b]pyridine-7-yl)amino)benzenesulfonamide] as the compound, how does the inhibition at 10 µM [1] read?
Answer: 10 to 50%

Question: What about the inhibition at 10 µM [2] of the same compound?
Answer: < 10%

Question: And the inhibition at 10 µM [3]?
Answer: 10 to 50%

Question: And the IC50 [4]?
Answer: 57 nM

Question: What does the source list for `Cc1cc(-c2nc3c(Nc4cccc(S(N)(=O)=O)c4)c(Br)cnc3[nH]2)c(C)n1-c1ccc(S(=O)(=O)N2CCOCC2)cc1` [Example 29, 3-((6-bromo-2-(2,5-dimethyl-1-(4-(morpholinosulfonyl)phenyl)-1H-pyrrol-3-yl)-3H-imidazo[4,5-b]pyridine-7-yl)amino)benzenesulfonamide]?
Answer: inhibition at 10 µM [1]: 10 to 50%; inhibition at 10 µM [2]: < 10%; inhibition at 10 µM [3]: 10 to 50%; IC50 [4]: 25 nM

Question: With `Cc1cc(-c2nc3c(Nc4cccc(S(N)(=O)=O)c4)c(Br)cnc3[nH]2)c(C)n1-c1cccc(S(=O)(=O)N2CCOCC2)c1` [Example 30, 3-((6-bromo-2-(2,5-dimethyl-1-(3-(morpholinosulfonyl)phenyl)-1H-pyrrol-3-yl)-3H-imidazo[4,5-b]pyridine-7-yl)amino)benzenesulfonamide] as the compound, how does the inhibition at 10 µM [1] read?
Answer: 10 to 50%

Question: What about the inhibition at 10 µM [2] of the same compound?
Answer: < 10%

Question: And the inhibition at 10 µM [3]?
Answer: 10 to 50%

Question: How did the inhibition at 10 µM [1] turn out when `Cc1cc(NS(C)(=O)=O)ccc1-n1c(C)cc(-c2nc3c(Nc4cccc(S(N)(=O)=O)c4)c(Br)cnc3[nH]2)c1C` [Example 32, 3-((6-bromo-2-(2,5-dimethyl-1-(2-methyl-4-(methylsulfonamido)phenyl)-1H-pyrrol-3-yl)-3H-imidazo[4,5-b]pyridine-7-yl)amino)benzenesulfonamide] was run?
Answer: 10 to 50%

Question: What about the inhibition at 10 µM [2] of the same compound?
Answer: 10 to 50%

Question: And the inhibition at 10 µM [3]?
Answer: 10 to 50%

Question: What about the IC50 [4] of the same compound?
Answer: 32 nM

Question: For `Cc1c(NS(C)(=O)=O)cccc1-n1c(C)cc(-c2nc3c(Nc4cccc(S(N)(=O)=O)c4)c(Br)cnc3[nH]2)c1C` [Example 34, 3-((6-bromo-2-(2,5-dimethyl-1-(2-methyl-3-(methylsulfonamido)phenyl)-1H-pyrrol-3-yl)-3H-imidazo[4,5-b]pyridine-7-yl)amino)benzenesulfonamide], which inhibition at 10 µM [1] is on record?
Answer: 10 to 50%

Question: And the inhibition at 10 µM [2]?
Answer: 10 to 50%

Question: What about the inhibition at 10 µM [3] of the same compound?
Answer: 10 to 50%

Question: And the IC50 [4]?
Answer: 41 nM

Question: With `Cc1cc(-c2nc3c(Nc4cccc(S(N)(=O)=O)c4)c(Br)cnc3[nH]2)c(C)n1-c1ccc2c(c1)OCO2` [Example 41, 3-((2-(1-(benzo[d][1,3]dioxole-5-yl)-2,5-dimethyl-1H-pyrrol-3-yl)-6-bromo-3H-imidazo[4,5-b]pyridine-7-yl)amino)benzenesulfonamide] as the compound, how does the inhibition at 10 µM [1] read?
Answer: 10 to 50%

Question: And the inhibition at 10 µM [2]?
Answer: 10 to 50%

Question: What about the inhibition at 10 µM [3] of the same compound?
Answer: 10 to 50%

Question: And the IC50 [4]?
Answer: 70 nM

Question: Which inhibition at 10 µM [1] does the source give for `COCCOc1cccc(-n2c(C)cc(-c3nc4ncc(Br)c(Nc5cccc(S(N)(=O)=O)c5)c4[nH]3)c2C)c1` [Example 42, 3-((6-bromo-2-(1-(3-(2-methoxyethoxy)phenyl)-2,5-dimethyl-1H-pyrrol-3-yl)-1H-imidazo[4,5-b]pyridine-7-yl)amino)benzenesulfonamide] here?
Answer: > 50%

Question: What about the inhibition at 10 µM [2] of the same compound?
Answer: 10 to 50%

Question: What about the inhibition at 10 µM [3] of the same compound?
Answer: > 50%

Question: What about the IC50 [4] of the same compound?
Answer: 83 nM

Question: Which results are given for `Cc1cc(-c2nc3ncc(Br)c(Nc4cccc(S(N)(=O)=O)c4)c3[nH]2)c(C)n1-c1ccccc1` [Example 43, 3-((6-bromo-2-(2,5-dimethyl-1-phenyl-1H-pyrrol-3-yl)-1H-imidazo[4,5-b]pyridine-7-yl)amino)benzenesulfonamide]?
Answer: inhibition at 10 µM [1]: 10 to 50%; inhibition at 10 µM [2]: 10 to 50%; inhibition at 10 µM [3]: > 50%; IC50 [4]: 85 nM

Question: Which results are given for `COCCOc1ccc(Nc2c(Br)cnc3[nH]c(-c4cc(C)n(-c5cccc(S(N)(=O)=O)c5)c4C)nc23)cc1` [Example 46, 3-(3-(6-bromo-7-((4-(2-methoxyethoxy)phenyl)amino)-3H-imidazo[4,5-b]pyridine-2-yl)-2,5-dimethyl-1H-pyrrol-1-yl)benzenesulfonamide]?
Answer: inhibition at 10 µM [1]: 10 to 50%; inhibition at 10 µM [2]: 10 to 50%; inhibition at 10 µM [3]: > 50%

Question: Which IC50 [5] does the source give for `CCS(=O)(=O)N1CC[C@H](Nc2c(Br)cnc3[nH]c(-c4cc(C)n(-c5ccc6c(c5)OCO6)c4C)nc23)C1` [Example 49, (S)-2-(1-(benzo[d][1,3]dioxole-5-yl)-2,5-dimethyl-1H-pyrrol-3-yl)-6-bromo-N-(1-(ethylsulfonyl)pyrrolidine-3-yl)-3H-imidazo[4,5-b]pyridine-7-amine] here?
Answer: 50 nM

Question: What about the IC50 [4] of the same compound?
Answer: 15 nM

Question: With `CCS(=O)(=O)N1CC[C@H](Nc2ccnc3[nH]c(-c4cc(C)n(-c5cc(NS(C)(=O)=O)ccc5C)c4C)nc23)C1` [Example 50, N-(3-(3-(7-(((S)-1-(ethylsulfonyl)pyrrolidine-3-yl)amino)-3H-imidazo[4,5-b]pyridine-2-yl)-2,5-dimethyl-1H-pyrrol-1-yl)-4-methylphenyl) methanesulfonamide] as the compound, how does the IC50 [5] read?
Answer: > 30000 nM

Question: And the IC50 [4]?
Answer: > 30000 nM

Question: Which IC50 [4] does the source give for `CCS(=O)(=O)N1CC[C@H](Nc2c(Br)cnc3[nH]c(-c4cc(C)n(-c5ccc(C(=O)NCCN(C)C)cc5)c4C)nc23)C1` [Example 62, (S)-4-(3-(6-bromo-7-((1-(ethylsulfonyl)pyrrolidine-3-yl)amino)-3H-imidazo[4,5-b]pyridine-2-yl)-2,5-dimethyl-1H-pyrrol-1-yl)-N-(2-(dimethylamino)ethyl)benzamide] here?
Answer: 17 nM

Question: Which IC50 [4] does the source give for `CCS(=O)(=O)N1CC[C@H](Nc2c(Br)cnc3[nH]c(-c4cc(C)n(-c5ccc(C(=O)N(C)CCN(C)C)cc5)c4C)nc23)C1` [Example 63, (S)-4-(3-(6-bromo-7-((1-(ethylsulfonyl)pyrrolidine-3-yl)amino)-3H-imidazo[4,5-b]pyridine-2-yl)-2,5-dimethyl-1H-pyrrol-1-yl)-N-(2-(dimethylamino)ethyl)-N-methylbenzamide] here?
Answer: 14 nM

Question: For `CCS(=O)(=O)N1CC[C@H](Nc2c(Br)cnc3nc(-c4cc(C)n(-c5cccc(C(=O)NCCN(C)C)c5C)c4C)[nH]c23)C1` [Example 82, 3-(3-(6-bromo-7-(((S)-1-(ethylsulfonyl)pyrrolidine-3-yl)amino)-1H-imidazo[4,5-b]pyridine-2-yl)-2,5-dimethyl-1H-pyrrol-1-yl)-N-(2-(dimethylamino)ethyl)-2-methylbenzamide], which IC50 [4] is on record?
Answer: 14 nM

Question: Which IC50 [4] does the source give for `CCS(=O)(=O)N1CC[C@H](Nc2c(Br)cnc3nc(-c4cc(C)n(-c5cccc(NC(=O)CN(C)C)c5C)c4C)[nH]c23)C1` [Example 84, N-(3-(3-(6-bromo-7-(((S)-1-(ethylsulfonyl)pyrolidine-3-yl)amino)-1H-imidazo[4,5-b]pyridine-2-yl)-2,5-dimethyl-1H-pyrrol-1-yl)-2-methylphenyl)-2-(dimethylamino) acetamide] here?
Answer: 8 nM

Question: For `CCS(=O)(=O)N1CC[C@H](Nc2c(Br)cnc3nc(-c4cc(C)n(-c5cccc(NC(=O)CN6CCOCC6)c5C)c4C)[nH]c23)C1` [Example 85, N-(3-(3-(6-bromo-7-(((S)-1-(ethylsulfonyl)pyrrolidine-3-yl)amino)-1H-imidazo[4,5-b]pyridine-2-yl)-2,5-dimethyl-1H-pyrrol-1-yl)-2-methylphenyl)-2-morpholinoacetamide], which IC50 [4] is on record?
Answer: 11 nM

Question: What does the source list for `CCS(=O)(=O)N1CC[C@H](Nc2c(Br)cnc3nc(-c4cc(C)n(-c5cccc(NC(=O)CCN(C)C)c5C)c4C)[nH]c23)C1` [Example 86, N-(3-(3-(6-bromo-7-(((S)-1-(ethylsulfonyl)pyrrolidine-3-yl)amino)-1H-imidazo[4,5-b]pyridine-2-yl)-2,5-dimethyl-1H-pyrrol-1-yl)-2-methylphenyl)-3-(dimethylamino) propanamide]?
Answer: IC50 [5]: 15 nM; IC50 [4]: 7 nM

Question: `CCS(=O)(=O)N1CC[C@H](Nc2c(Br)cnc3nc(-c4cc(C)n(-c5cc(C(=O)N6CCN(C)CC6)ccc5C)c4C)[nH]c23)C1` [Example 92, (3-(3-(6-bromo-7-(((S)-1-(ethylsulfonyl)pyrrolidine-3-yl)amino)-1H-imidazo[4,5-b]pyridine-2-yl)-2,5-dimethyl-1H-pyrrol-1-yl)-4-methylphenyl) (4-methylpiperazine-1-yl) methanone] was tested. Which IC50 [4] did it give?
Answer: 26 nM

Question: For `CCS(=O)(=O)N1CC[C@H](Nc2c(Br)cnc3[nH]c(-c4cc(C)n(-c5ccc(C(=O)N6CCN(C)CC6)cc5C)c4C)nc23)C1` [Example 97, (4-(3-(6-bromo-7-(((S)-1-(ethylsulfonyl)pyrrolidine-3-yl)amino)-3H-imidazo[4,5-b]pyridine-2-yl)-2,5-dimethyl-1H-pyrrol-1-yl)-3-methylphenyl) (4-methylpiperazine-1-yl) methanone], which IC50 [4] is on record?
Answer: 20 nM
